The text below walks through data of publication PMC6754100 (Journal of the American Chemical Society, 2019).

Counter-ions that a name gives are not always drawn.

The assay has as its target T1, human ornithine aminotransferase (hOAT) (Homo sapiens, UniProt P04181).
T1 sequence (P04181 26-439): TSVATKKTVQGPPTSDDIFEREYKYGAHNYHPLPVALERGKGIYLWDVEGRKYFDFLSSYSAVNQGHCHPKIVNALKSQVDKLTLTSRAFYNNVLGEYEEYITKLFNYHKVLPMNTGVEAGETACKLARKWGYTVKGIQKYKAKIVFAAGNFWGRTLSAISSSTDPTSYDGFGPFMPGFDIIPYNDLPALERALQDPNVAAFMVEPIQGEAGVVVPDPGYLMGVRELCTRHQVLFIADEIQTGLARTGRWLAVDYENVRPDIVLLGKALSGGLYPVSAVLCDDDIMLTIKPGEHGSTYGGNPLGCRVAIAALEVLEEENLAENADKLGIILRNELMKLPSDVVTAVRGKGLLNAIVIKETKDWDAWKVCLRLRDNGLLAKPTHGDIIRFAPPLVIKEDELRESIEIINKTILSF
The assay is described as follows: […] Å crystal structure of the inactivated enzyme. In kind it is biochemical. The following applies: read-out: Ki.

On to `N[C@H]1C[C@@H](C(=O)O)CC1=C(C(F)(F)F)C(F)(F)F` [compound 1, (1S,3S)-3-amino-4-(perfluoropropan-2-ylidene)cyclopentane-1-carboxylic acid hydrochloride], for which the KI (inactivation) came to 54 µM.
